# Measurements reported in patent US20240173440A1, “HIGH PURITY COPPER RADIOPHARMACEUTICAL COMPOSITIONS AND DIAGNOSTIC AND THERAPEUTIC USES THEREOF” (Nuclidium AG, priority 2022, published 2024).
# Tests used:
# [1] = Lipophilicity, log D by shake-flask method (1-octanol/PBS pH 7.4); format: physicochemical; details: shake-flask, Table 17, mean ± SD
# Summary of the method: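 Radiotracer shaken 30 min in pre-saturated 1-octanol/PBS pH 7.4 (1:1), then centrifuged for phase separation. Radioactivity in each phase measured by gamma counting; log D reported as the average log of organic/PBS activity ratio.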
# LNCaP cells = assay: In vitro cellular uptake (cell surface and internalized fractions) in LNCaP cells; format: cell-based
# Protocol: The cellular uptake was studied in vitro using intact cells seeded in 6-well plates overnight. On the day of the experiment, the cells were washed and incubated with each of the exemplified [^61Cu]Cu-radiotracer at different time points, either alone or in the presence of a blocking agent to distinguish between specific and non-specific uptake. At each investigated time point, the medium containing the unbound (free) radiotracer was removed, followed by two washing steps with ice-cold phosphate-buffered saline. The cells were then treated 2×5 min with ice-cold glycine solution (0.05 M, pH 2.8) to detach the cell surface-bound radiotracer (acid released). Afterwards, the cells containing the internalized radiotracer were detached with 1 M NaOH at 37° C. and collected for measurement. The amount of specific cell surface-bound and internalized radiotracer is expressed as percentage of the total applied activity, after subtracting the non-specific values.
# 2-(phosphonomethyl)-pentanedioic acid (2-PMPA, 10 μM) was used to determine non-specific binding (FIG. 14).
# Cellular uptake and distribution between cell surface (cell membrane bound) and internalized fractions of ^61Cu-labeled PSMA-I&T constructs versus their ^68Ga counterparts (Table 19). The values are expressed as % of the applied activity and refer to the specific uptake calculated after subtracting the non-specific values (measured in the presence of 10 μM 2-PMPA) from the total values (specific=total−non specific).
# LNCaP xenografts = assay: PET/CT imaging in LNCaP xenografted mice; format: in vivo; details: LNCaP-xenografted nude mice
# Protocol: Tumor xenografted mice were injected intravenously into the tail vein with the tested radiotracer. […] Mice were anesthetized with 1.5% isoflurane and dynamic PET scans were acquired during 1 hour upon injection of the radiotracer. The mice were euthanized by CO2 at 4 hours p.i., the bladder was mechanically emptied, and static PET scans were acquired for 30 min. PET images were acquired using the R-CUBE PET scanner system (MOLECUBES, Gent, Belgium) and they were decay corrected and reconstructed with the VivoQuant software version 4.0. The CT was imaged supine, headfirst, using the NanoSPECT/CT™ scanner (Bioscan Inc.). Topograms and helical CT scans of the whole mouse were first acquired using the following parameters: X-ray tube current: 177 μA, X-ray tube voltage 45 kVp, 90 seconds and 180 frames per rotation, pitch 1. CT images were reconstructed using CTReco (version r1.146), with a standard filtered back projection algorithm (exact cone beam) and post-filtered (RamLak, 100% frequency cut-off), resulting in a pixel size of 0.2 mm. Co-registered PET/CT images were visualized using maximum intensity projection (MIP) with InVivoScope (version 1.43, Bioscan Inc.). The results are presented in the Examples that follow.
# PSMA [2] = molecular target: T1, PSMA (Homo sapiens (Human), UniProt Q04609); assay: Specificity study: PET/CT in LNCaP xenografts after blocking with 2-PMPA, and free [61Cu]CuCl2; format: in vivo, mice; details: PET/CT 1 hour p.i.
# Protocol: The specificity of [^61Cu]Cu-NODAGA-PSMA-I&T and [^61Cu]Cu-DOTAGA-PSMA-I&T was assessed in LNCaP xenografted mice, firstly injected with 1.3 μmol (300 μg) of 2-Phosphonomethyl pentanedioic acid (2-PMPA) as the blocking agent, followed by the injection of the radiotracer e.g. [^61Cu]Cu-DOTAGA-PSMA-I&T (100 μL/[…]/4-8 MBq) or [^61Cu]Cu-NODAGA-PSMA-I&T (100 μL/[…]/4-8 MBq). One-hour post injection PET/CT images were acquired as described in Example 8. In addition, PET/CT image of xenografts after injection of [^61Cu]CuCl2 (100 μL/7 MBq) was acquired in order to assess the total body distribution of free (uncomplexed)^61Cu. The results are shown in FIG. 10, panels A and B. L=liver; K=kidneys; T=tumor; Bl=bladder; I=intestine.
# PSMA [3] = molecular target: T1, PSMA; assay: PET/CT imaging in a patient with metastatic prostate cancer; format: in vivo; details: metastatic castration resistant prostate cancer, imaging 3 hours after administration
# Protocol: Radiopharmaceutical preparation: The reaction is carried out in a GE Healthcare FASTlab 2 module. A 40 μg (28 nmol) aliquot of lyophilized NODAGA-PSMA-I&T (piCHEM, Austria) was dissolved in up to 6 mL 0.5 M sodium acetate (pH 8) and ascorbic acid (20 μg/mL), and transferred to a reaction vial. Then [^61Cu]CuCl2 in 0.05 M hydrochloric acid (0.3-1.0 GBq/mL) (3 mL) was added to the NODAGA-PSMA-I&T solution, reaching a pH between 4.5 and 6.5. The obtained reaction solution was incubated for 10 min at room temperature (approx. 20-25° C.) and dispensed to the product vial (20 mL sterile evacuated vial) over a sterile Cathivex-GV 25 mm PVDF 0.22 μm filter. The product was finally diluted with 0.9% sodium chloride for injection (B. Braun, Germany) up to 12 mL. [^61Cu]Cu-NODAGA-PSMA-I&T is produced with high radiochemical purity (≥95%). Therefore, no further purification step is necessary. All the chemicals used are trace metal grade.
# The patient was co-administered […] furosemide (Lasix®, Sanofi-Aventis, Frankfurt, Germany). The imaging was performed at 3 hours following radiotracer administration on a Biograph Vision 600 (Siemens, Germany) PET/CT scanner. These images, shown in FIG. 35, were obtained from the skull to mid-thigh and reconstructed into multiplanar PT, CT, and fused PET/CT images. CT was used for attenuation correction.
# T1 sequence (Q04609 whole entry): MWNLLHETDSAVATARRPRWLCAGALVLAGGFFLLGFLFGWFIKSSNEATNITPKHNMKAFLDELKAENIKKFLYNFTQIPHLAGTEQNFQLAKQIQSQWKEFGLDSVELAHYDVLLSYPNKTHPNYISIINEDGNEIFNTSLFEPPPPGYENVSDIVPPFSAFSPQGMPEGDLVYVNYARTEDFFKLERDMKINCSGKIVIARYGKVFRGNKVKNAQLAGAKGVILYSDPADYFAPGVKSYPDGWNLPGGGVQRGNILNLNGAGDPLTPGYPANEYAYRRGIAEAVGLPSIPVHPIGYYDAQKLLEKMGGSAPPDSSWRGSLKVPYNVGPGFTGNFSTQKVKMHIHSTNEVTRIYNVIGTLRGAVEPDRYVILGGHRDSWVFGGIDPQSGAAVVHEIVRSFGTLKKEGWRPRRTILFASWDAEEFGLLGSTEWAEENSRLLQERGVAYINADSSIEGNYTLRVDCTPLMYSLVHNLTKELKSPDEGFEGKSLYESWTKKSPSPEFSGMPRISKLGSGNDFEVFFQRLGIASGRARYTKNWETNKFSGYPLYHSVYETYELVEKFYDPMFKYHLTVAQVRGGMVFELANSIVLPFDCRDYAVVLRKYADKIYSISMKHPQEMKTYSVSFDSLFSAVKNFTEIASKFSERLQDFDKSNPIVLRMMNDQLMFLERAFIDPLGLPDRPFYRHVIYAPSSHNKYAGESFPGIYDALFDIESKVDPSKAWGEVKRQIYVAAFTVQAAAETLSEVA
compound,measurement,setting,value
O=C(O)CC[C@H](NC(=O)N[C@@H](CCCCNC(=O)CCCCCCC(=O)NCCCC[C@@H](NC(=O)[C@@H](Cc1ccccc1)NC(=O)[C@@H](Cc1ccc(O)c(I)c1)NC(=O)CC[C@H](C(=O)O)N1CCN2CCN(CC1)CC(=O)[O][61Cu][O]C(=O)C2)C(=O)O)C(=O)O)C(=O)O [[^61Cu]Cu-NODAGA-PSMA-I&T],log D(O/PBS pH 7.4),[1],−2.95±0.08
same,Cell surface fraction,"LNCaP cells; 5 min, specific uptake",4.3 ± 0.7 % of the applied activity
same,Internalized fraction,"LNCaP cells; 5 min, specific uptake",1.2 ± 0.2 % of the applied activity
same,Cell surface fraction,"LNCaP cells; 15 min, specific uptake",8.2 ± 1.0 % of the applied activity
same,Internalized fraction,"LNCaP cells; 15 min, specific uptake",3.9 ± 0.4 % of the applied activity
same,Cell surface fraction,"LNCaP cells; 30 min, specific uptake",10.7 ± 1.0 % of the applied activity
same,Internalized fraction,"LNCaP cells; 30 min, specific uptake",7.0 ± 1.1 % of the applied activity
same,Cell surface fraction,"LNCaP cells; 60 min, specific uptake",10.8 ± 1.8 % of the applied activity
same,Internalized fraction,"LNCaP cells; 60 min, specific uptake",11.7 ± 1.6 % of the applied activity
same,Cell surface fraction,"LNCaP cells; 120 min, specific uptake",10.2 ± 1.8 % of the applied activity
same,Internalized fraction,"LNCaP cells; 120 min, specific uptake",17.6 ± 2.8 % of the applied activity
same,Internalized fraction,LNCaP cells; after 1 h at 37° C.,12±1.9%
same,cellular uptake in vitro,LNCaP cells; after 1 h at 37° C.,26.6±0.9%
same,PSMA-mediated cellular uptake,LNCaP cells; after 2h at 37° C.,approx. 35%
same,part of the cellular uptake being internalized,LNCaP cells; after 2h at 37° C.,50-60%
same,distribution on PET/CT images,LNCaP xenografts,"accumulated in the tumor, increasing from 15 up to 60 min p.i., and in the kidneys"
same,uptake in PSMA-positive tumors and kidneys in xenografts pre-injected with 2-PMPA,PSMA [2],significantly lower uptake
same,tracer uptake on PET/CT in patient,PSMA [3],"intense tracer uptake by multiple osseous, pelvic lymph node, and liver metastases"
